# Read-outs that look alike come from different tables or passages of the source.
# How the values were obtained:
# [1] = AUDA-BE and its metabolites measured in brain tissue; assay type: in vivo, mice; conditions: for levels detected in homogenates of brain tissue: after AUDA-BE injection, methanol/chloroform extraction
# From the text: This concentration was also biologically effective in lowering blood pressure in hypertensive model (Imig et al. (2005) Hypertension 46:975-81). Therefore, in these experiments, the levels of sEH inhibitors in the blood are in the concentration range expected to inhibit the enzyme.
# [2] = test system: neonatal murine cardiomyocytes; test: Oxygen-glucose deprivation of cultured cardiomyocytes transduced with TAT-hsEH, cell death by propidium iodide; assay type: cell-based; conditions: for cell survival after OGD: all polymorphisms/groups tested except Arg287Gln
# Method: Post natal Day 7-8 C57BL\6 mice were used. 3-4 hearts were obtained from same-gender mice. Cells were dissociated with 0.625% wt/volume trypsin in Ca^2+ and Mg^2+ free HBSS. The cells were centrifuged and re-suspended in FBS-M199. Cells were supplemented with estrogen-free 15% FBS, 100 U/ml penicillin, 100 μg/ml streptomycin, and 25 μM cytosine arabinoside. The cells were then plated at 37° C. for 1 hour under a water-saturated atmosphere of 5% CO2-[…]. Suspended cells were collected and plated at 1.0×10^5 cells/cm^2 and incubated as above for 24 hours.
# Six TAT-hsEH fusion proteins, including one wild type and five EPHX2 mutants (Lys55Arg, Arg103Cys, Cys154Tyr, Arg287Gln, and Arg103Cys/Arg287Gln), were expressed and purified as reported (Koerner et al. (2007) J. Neurosci., 27:4642-4649).
# TAT-hsEH fusion proteins were added to the medium of cultured cardiomyocytes to the final concentration of 100 nM. The cells were incubated at 37° C. for 24 hours before the onset of oxygen-glucose deprivation.
# For oxygen-glucose deprivation (OGD), cells were placed in a Plexiglas hypoxia chamber under 100% N2 at 37° C. and glucose-free medium (MEM/HBSS). For reoxygenation, cells were placed in 21% O2 (5% CO2) and glucose-replete FBS-M199 medium.
# Cell death was assessed via propidium iodide (PI, 5 μM) with >300 cells/sample.
# Cultured neonatal murine cardiomyocytes were transduced with five human EPHX2 variants linked to the protein transduction domain TAT. Cultures were subjected to 1.5 hours of oxygen and glucose deprivation followed by 3 hours of re-oxygenation, with or without sEH substrate 14,15-EET. Cell death was assessed by propidium iodide (% of all cells, mean±SEM, n=5-9 replicates). Successful transduction was confirmed by immunoblot. All mutants reduced cell death compared to the human wild-type EPHX2 (rh-sEHWT, 63±1%), but only the Arg287Gln mutations was different from untransduced controls (FIG. 13B).
# mice [3] = test: MCAO in mice, infarct size (Example 6); assay type: in vivo
# From the text: Transient focal cerebral ischemia was induced in adult male mice (20 to 26 g body weight) using the intraluminal MCAO technique, as previously described (Alkayed et al. (2001) J. Neurosci., 21:7543-7550). Briefly, mice were anesthetized with halothane (1.5 to 2% in O2-enriched air by face mask), and kept warm with water pads. A small laser-Doppler probe was affixed to skull to monitor cortical perfusion and verify vascular occlusion and reperfusion. A silicone-coated 6-0 nylon monofilament was inserted into the right internal carotid artery (ICA) via the external carotid artery (ECA) until laser-Doppler signal dropped to <30% of baseline. After securing the filament in place, the surgical site was closed, and the animal was awakened and assessed at 2 hours of occlusion for neurological deficit using a simple neurological scoring system as follows: 0=no deficit, 1=failure to extend forelimb, 2=circling, 3=unilateral weakness, 4=no spontaneous motor activity. […] Infarct size was measured at 24 hours after MCAO in 2-mm thick coronal brain sections (5 total) using 2,3,5-triphenyltetrazolium chloride (TTC) staining and digital image analysis. […] Slices were photographed and infracted (unstained) and uninfarcted (red color) areas were measured with MCID software (InterFocus, Linton, England) and integrated across all 5 slices. […]
# mice [4] = assay type: in vivo
# From the text: Male mice between the ages of 16-24 weeks were anesthetized with isoflurane (induction 4-5 vol %; maintenance 1-2 vol %), intubated with a 20G plastic IV catheter, and mechanically ventilated using a rodent ventilator (Inspira, volume-controlled, Harvard Apparatus, MA). ECG and rectal temperature were continuously monitored using a PC-based recording device (PowerLab 8/30, ADInstruments, Colorado Springs, Colo.). The animals were positioned in a right lateral decubital position on a heating pad and rectal temperature was maintained at 37° C. throughout the experiment. A PE-10 catheter was inserted into the left jugular vein for intravenous drug infusion. Using a dissecting microscope, a left-sided thoracotomy was performed in the 4th intercostal space. […] A ligature (8-0 Monosof MV-135-4, ⅜ 5 mm tapered needle, Syneture, Norwalk, Colo.) was placed around the left coronary artery (LCA) approximately 2 mm distal to the left atrial margin. The suture was fed through a short section of PE-10 tubing to form a snare to allow temporary occlusion. The LCA was occluded for 40 minutes; occlusion was confirmed by persistent ECG changes during occlusion and visual paling of the left ventricle (LV). After 40 minutes the snare was released and reperfusion was confirmed with visual hyperemia of the LV and return of the ECG changes. After 2 hours of reperfusion the LCA was re-occluded and fluorescent polymer microspheres (0.4% solution, diameter 1-10 μm; Duke Scientific Corporation, Palo Alto, Calif.) were infused via needle puncture of the LV apex. […] Heart was then excised, rinsed in normal saline, and the right and left atria were removed under the dissecting microscope. The remaining left and right ventricles were weighed and then sliced into seven sections (d=1 mm) for imaging and staining.
# Heart sections were immediately photographed with a digital camera (Canon Powershot A620) under UV light for determination of AAR. Infarct size (I) was determined by staining the heart sections in 1% 2,3,5 triphenyltetrazolium chloride (TTC) in phosphate buffer at pH 7.4 for 10 minutes, followed by 10% neutral buffered formalin (NBF) bath overnight. Pictures were taken the next day under full spectrum light. TTC stained non-infarcted myocardium red, while infarcted myocardium remained white. Both AAR and I areas were calculated in a blinded fashion using standard imaging software (Photoshop Elements 4). A calibration ruler was present in each picture to convert pixels into volume. TTC slices were volume corrected for dehydration following formalin immersion.
# The 14,15-EET was obtained from BIOMOL (Plymouth Meeting, Pa.). It was dissolved in a vehicle composed of 100% ethanol and saline (1:3), resulting in a final ethanol solution of 25%. […] SNC-162, a non-peptide δ-opioid receptor agonist, was used for comparison of the magnitude of cardioprotection found within the epoxide pathway. SNC-162 (0.1 μg/g iv over 10 minutes) was dissolved in 10% DMSO.
# [5] = Pharmacokinetics of AUDA-BE and its metabolites in plasma after single intraperitoneal injection; assay type: in vivo, C57Bl/6 mice
# Method: A second set of animals was injected with sesame oil alone (vehicle). […] (2002) Biochem. Pharmacol., 63:1599-608; Watanabe et al. (2006) Anal. Chim. Acta., 559:37-44). Briefly, blood samples (10 μL) were collected in 1.5 mL Eppendorf microcentrifuge tubes, weighed, and vortexed with 100 μL of purified water. […] Aliquots (10 μL) were analyzed by liquid chromatography coupled mass spectroscopy LC-MS/MS (Watanabe et al. (2006) Anal. Chim. Acta., 559:37-44; Watanabe and Hammock (2001) Anal. Biochem., 299:227-34). The concentration of sEH inhibitors were quantified in extracts using HPLC with positive mode electrospray ionization and tandem mass spectrometry. Analytes were quantified on a 5-point curve with internal standard methods. Surrogate recoveries were evaluated by quantification against the internal standard. Surrogate recoveries were 70% for all reported plasma samples, the analysis of reagent blanks, matrix spikes, and analytical replicates were used to document method stability during this study. […] Differences in infarct size, enzyme activity, and blood flow rates were analyzed with a t-test for two groups and analysis of variance with post hoc Newman-Keuls multiple range test for multiple groups. The pharmacokinetic profile was examined for goodness of fit to a noncompartmental or multicompartmental models. Pharmacokinetic parameters were then obtained by fitting the blood-concentration-time data to a non-compartmental model with the WinNonlin software (Pharsight, Mountain View, Calif., USA), as described previously (Watanabe et al. (2006) Anal. Chim. Acta., 559:37-44). The criterion for statistical significance was set at P<0.05. All values are reported as mean±s.e.m.
# C57Bl/6 mice = test: Middle cerebral artery occlusion in mice, infarct size (Example 2); assay type: in vivo; conditions: MS-PPOH alone
# Method: (2001) J. Neurosci., 21:7543-50). […] A small laser-Doppler probe was affixed to the skull to monitor cortical perfusion and verify vascular occlusion and reperfusion. […] After securing the filament in place, the surgical site was closed, and the animal was awakened and assessed at 2 hours of occlusion for neurological deficit using a simple neurological scoring system as follows: 0=no deficit, 1=failure to extend forelimb, 2=circling, 3=unilateral weakness, 4=no spontaneous motor activity. Mice with clear neurological deficit were re-anesthetized, laser-Doppler probe re-positioned over same site on the skull, and the occluding filament was withdrawn to allow for reperfusion. Mice were then allowed to recover and observed for 1 day. […] Slices were photographed, and infarcted (unstained) and uninfarcted (red color) areas were measured with MCID software (InterFocus Imaging Ltd, Linton, UK) and integrated across all five slices. To account for the effect of edema, the infarcted area was estimated indirectly by subtracting the uninfarcted area in the ipsilateral hemisphere from the contralateral hemisphere, and expressing infarct volume as a percentage of contralateral hemisphere. […] (2000) J. Physiol. Pharmacol., 51:655-72). […] Animals were randomly assigned to treatment groups.
# [6] = given prior to LCA occlusion (PRE)
# [7] = single injection of 10 mg/kg AUDA-BE
# [8] = AUDA-BE 10 mg/kg intraperitoneal
compound,measurement,setting,value
12-(3-adamantan-1-yl-ureido)-butyl acid [AUBA],levels detected in homogenates of brain tissue,[1],not
"O=C(c1ccccc1)C1OC1c1ccc(-c2ccccc2)cc1 (stereo not shown) [4-PCO, 4-phenylchalcone oxide]",cell survival after OGD,[2],improved cell survival significantly
"CCCCCC1OC1C/C=C\C/C=C\C/C=C\CCCC(=O)O (stereo not shown) [14,15-EET]",infarct size after MCAO,"mice [3]; 14,15-EET 1 μg over 24 hours via osmotic minipump, jugular vein, vehicle 34.5±8.6%",10.9±4.3%
same,cell survival after OGD,[2],improved cell survival
same,"cell death (propidium iodide, % of all cells)","[2]; excess 14,15-EET (1 μM) in Arg287Gln-transduced cardiomyocytes, 1.5 hours OGD, 3 hours re-oxygenation",45±1%
same,Infarct Volume,mice [4]; PRO (given prior to reperfusion),12 ± 2 mm^3
same,infarct size after myocardial I/R compared to vehicle,mice [4]; given before ischemia or before reperfusion,significantly reduced
same,Infarct Volume,mice [4]; [6],10 ± 1 mm^3
same,bleeding in pilot studies following heparin administration,"mice [4]; mouse, in vivo",excessive bleeding
same,"reducing I/AAR, injection prior to reperfusion compared to pre-ischemic delivery","mice [4]; mouse, in vivo",less effective
"CCCCCC1OC1CCCCCCC/C=C\CCCC(=O)O (stereo not shown) [14,15-EEZE, 14,15-epoxyeicosa-5(Z)-enoic acid]",infarct size after MCAO,"mice [3]; sEHKO mice, 10 μg over 24 hours via minipump, mean±SD, vehicle-treated sEHKO 9.1±9.5",9.4±12.4
"O=C(O)CCCCCCCCCCCNC(=O)NC12CC3CC(CC(C3)C1)C2 [AUDA, 12-(3-adamantan-1-yl-ureido)-dodecanoic acid]",MRT,"[1]; C57Bl/6, mouse, brain, intraperitoneal, 10 mg/kg, read-out: mean residence time in brain",6 h
same,levels detected in homogenates of brain tissue,[1],significant levels
same,half-time elimination in brain,[1]; [7],4 h
same,time to maximum concentration in brain,[1]; [7],≤ 3 h
same,peak concentration in plasma,[5]; [8],52 nmol/L
same,time of peak concentration in plasma,[5]; [8],1 h
same,half time of elimination in plasma,"[5]; AUDA-BE 10 mg/kg intraperitoneal, non-compartmental model",7 h
same,maximum concentration in plasma,"[5]; AUDA-BE 40 mg/kg intraperitoneal, within the first hour",4 µmol/L
same,MRT,"[5]; C57Bl/6, mouse, plasma, ip, 10 mg/kg, read-out: mean residence time in plasma",9 h
"C#CCOc1ccccc1CCCCCC(=O)NS(C)(=O)=O [MS-PPOH, N-methylsulfonyl-6-(2-propargyloxyphenyl)hexanamide]",infarct size after MCAO,C57Bl/6 mice,24±6%
C=CCN1C[C@H](C)N([C@@H](c2ccccc2)c2ccc(C(=O)N(CC)CC)cc2)C[C@H]1C [SNC-162],Infarct Volume,mice [4]; [6],9 ± 2 mm^3
